One assay has as its system MHC class I. In words: MHC class I binding assay (UV-exchange, β2m ELISA). The note with it: yield of UV-exchange reaction. Further details: species or system human. As to the method:
Candidate peptides for T cell based therapies according to the present invention were further tested for their MHC binding capacity (affinity). The individual peptide-MHC complexes were produced by exchange with the peptide of interest as analyzed. Only peptide candidates that can effectively bind and stabilize the peptide-receptive MHC molecules prevent dissociation of the MHC complexes. To determine the yield of the exchange reaction, an ELISA was performed based on the detection of the light chain (β2m) of stabilized MHC complexes. The assay was performed as generally described in Rodenko et al. (Rodenko, B. et al., Nat Protoc. 1 (2006): 1120-1132).
96 well MAXISorp plates (NUNC) were coated over night with 2 ug/ml streptavidin in PBS at room temperature, washed 4× and blocked for 1 h at 37° C. in 2% BSA containing blocking buffer. Refolded HLA-A*0201/MLA-001 monomers served as standards, covering the range of 15-500 ng/ml. Peptide-MHC monomers of the UV-exchange reaction were diluted 100 fold in blocking buffer. Samples were incubated for 1 h at 37° C., washed four times, incubated with 2 μg/ml HRP conjugated anti-β2m for 1 h at 37° C., washed again and detected with TMB solution that is stopped with […]. Absorption was measured at 450 nm. Candidate peptides that show a high exchange yield (preferably higher than 50%, most preferred higher than 75%) are generally preferred for a generation and production of antibodies or fragments thereof, and/or T cell receptors or fragments thereof, as they show sufficient avidity to the MHC molecules and prevent dissociation of the MHC complexes.
MHC class I binding scores for the peptides as tested were; <20%=+; 20%-49%=++; 50%−75%=+++; >=75%=++++
For orientation: ELISA stands for enzyme-linked immunosorbent assay.

A further assay relates to HLA-DR6. As to the kind of experiment: REVEAL MHC-peptide binding assay. Further details: species or system human. As to the method: (§1) The promiscuous binding of GALNT7-001 and ERGIC1-001 to various HLA-DR haplotypes and the stability of the formed complexes was assessed in an in vitro binding assay.
(§2) The seven investigated HLA-DR haplotypes are selected according to their frequencies in HLA-A*02- and HLA-A*24-positive North American populations. Data are derived from the analysis of 1.35 million HLA-typed volunteers registered in the National Marrow Donor Program (Mori M, Beatty P G, Graves M, Boucher K M, Milford E L (1997). HLA gene and haplotype frequencies in the North American population: the National Marrow Donor Program Donor Registry. Transplantation 64, 1017-1027). The analyzed population was subdivided in the following ethnic groups: Caucasian Americans (N=997,193), African Americans (N=110,057), Asian Americans (N=81,139), Latin Americans (N=100,128), and Native Americans (N=19,203).
(§3) The MHC-peptide binding assay as used determined the ability of each candidate peptide to bind to the selected HLA class II haplotype and stabilize the HLA-peptide complex. For this, the candidate peptides are assembled in vitro with a particular HLA class II protein.
(§4) The binding capacity of a candidate peptide to a particular HLA molecule is compared to a reference peptide with known very strong binding properties (positive control) for each HLA haplotype. Experimental standard errors derive from binding experiments of triplicated positive controls.
(§5) Besides the affinity of a peptide to a particular HLA molecule, the enduring stability of the formed HLA-peptide complex is crucial for the occurrence of an immune response. For this reason the presence of the formed HLA-peptide complex is measured after its incubation for 24 h at 37° C. The stability of the formed MHC-peptide complex is calculated as a ratio of the binding scores at 24 h and the binding scores which are received right after the refolding (accordingly at time 0) in percent.

The next assay deals with HLA-DR4. In words: REVEAL MHC-peptide binding assay. The arrangement: species or system human. The conditions noted are these: for binding / complex formation: HLA-DR4; for stability of the formed HLA-peptide complex: HLA-DR4, after 24 h at 37° C.; for binding score: HLA-DR4, compared to the positive control, over 15% = strong binding. As to the method:
as §1, §2, §3, §4, §5

For the next assay, the system named is HLA-DR3. In words: REVEAL MHC-peptide binding assay. Further details: species or system human. As to the method: as §1, §2, §3, §4, §5
The subject of another assay is HLA-DR5. As to the kind of experiment: REVEAL MHC-peptide binding assay. Further details: species or system human. The note with it: for binding / complex formation: HLA-DR5; for stability of the formed HLA-peptide complex: HLA-DR5, after 24 h at 37° C. As to the method: as §1, §2, §3, §4, §5
For another assay, the system named is HLA-DR1. As to the kind of experiment: REVEAL MHC-peptide binding assay. The arrangement: species or system human. The note with it: for binding / complex formation: HLA-DR1; for stability of the formed HLA-peptide complex: HLA-DR1, after 24 h at 37° C. As to the method: as §1, §2, §3, §4, §5
The test system of the next assay is HLA-DR7. As to the kind of experiment: REVEAL MHC-peptide binding assay. The note with it: for binding / complex formation: HLA-DR7; for stability of the formed HLA-peptide complex: HLA-DR7, after 24 h at 37° C. Further details: species or system human. Here is the method: as §1, §2, §3, §4, §5
For a further assay, the target named is HLA-DR2 (Homo sapiens, UniProt P01903+P01911). As to the kind of experiment: REVEAL MHC-peptide binding assay. The conditions noted are these: for binding / complex formation: HLA-DR2. Here is the method:
as §1, §2, §3, §4, §5

A further assay has as its system HLA-DR haplotypes. In words: REVEAL MHC-peptide binding assay, panel of seven HLA-DR haplotypes. The arrangement: species or system human. The conditions noted are these: for number of formed HLA-peptide complexes stable for at least 24 h: of 5 formed complexes, 37° C.; for number of HLA-DR haplotypes with considerable binding capacity / number of HLA-DR haplotypes with which a complex was formed: of 7 investigated HLA-DR haplotypes. As to the method:
as §1, §2, §3, §4, §5

In another assay the test system is healthy donor PBMC. In words: Cross-checking IFN-γ ELISPOT assay, HLA class II LiTAPs, healthy donor PBMC. Type of assay: cell-based, human. The conditions noted are these: HLA class II peptide. As to the method:
(§6) PBMC from AML patients and healthy volunteers were cultured in RPMI1640 medium (Gibco) supplemented with 10% pooled human serum (PHS, produced in-house), […] β-mercaptoethanol (Roth, Karlsruhe, Germany) and 1% penicillin/streptomycin (GE). For CD8^+ T cell stimulation, PBMC were thawed and pulsed with 1 μg/ml per peptide. Peptide-pulsed PBMC (5-6×10^6 cells/ml) were cultured at 37° C. and 5% CO2 for 12 days. On day 0 and day 1, 5 ng/ml IL-4 (R&D Systems, Minneapolis, Minn., USA) and 5 ng/ml IL-7 (Promokine, Heidelberg, Germany) were added to the culture medium. On days 3, 5, 7 and 9, 2 ng/ml IL-2 (R&D Systems) were added to the culture medium. Peptide-stimulated PBMC were functionally characterized by ELISPOT assays on day 12 and by intracellular cytokine staining on day 13 respectively. For CD4^+ T-cell stimulation, culture was performed as described for CD8^+ T cells with 2 modifications: pulsing was carried out with 10 μg/ml of HLA class II peptide and no IL-4 and IL-7 was added.
(§7) IFN-γ ELISPOT assays were carried out as described previously (Widenmeyer M, Griesemann H, Stevanovic S, Feyerabend S, Klein R, Attig S, et al. Promiscuous survivin peptide induces robust CD4+ T-cell responses in the majority of vaccinated cancer patients. Int J Cancer. 2012 Jul. 1; 131(1):140-9). In brief, 96-well nitrocellulose plates (Millipore) were coated with 1 mg/ml IFN-γ mAb (Mabtech, Cincinnati, Ohio, USA) and incubated over night at 4° C. Plates were blocked with 10% PHS for 2 h at 37° C. 5×10^5 cells/well of pre-stimulated PBMC were pulsed with 1 μg/ml (HLA class I) or 2.5 μg/ml (HLA class II) peptide and incubated for 24-26 h. Readout was performed according to manufacturer's instructions. Spots were counted using an ImmunoSpot S5 analyzer (CTL, Shaker Heights, Ohio, USA). T cell responses were considered to be positive when >15 spots/well were counted and the mean spot count per well was at least 3-fold higher than the mean number of spots in the negative control wells (according to the cancer immunoguiding program (CIP) guidelines).

For another assay, the system named is AML patient PBMC. In words: 12-day recall IFN-γ ELISPOT assay, HLA class II LiTAPs, AML patient PBMC. Type of assay: cell-based, human. The conditions noted are these: HLA class II peptide. As to the method:
as §6, §7

Chain of HLA-DR2 (P01903 26-216 limits assumed): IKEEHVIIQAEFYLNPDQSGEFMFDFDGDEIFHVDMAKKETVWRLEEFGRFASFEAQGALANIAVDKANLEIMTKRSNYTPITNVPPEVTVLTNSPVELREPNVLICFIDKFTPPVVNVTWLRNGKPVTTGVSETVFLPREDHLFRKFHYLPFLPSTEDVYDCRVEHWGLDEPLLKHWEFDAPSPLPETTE
Chain of HLA-DR2 (P01911 30-227 limits assumed): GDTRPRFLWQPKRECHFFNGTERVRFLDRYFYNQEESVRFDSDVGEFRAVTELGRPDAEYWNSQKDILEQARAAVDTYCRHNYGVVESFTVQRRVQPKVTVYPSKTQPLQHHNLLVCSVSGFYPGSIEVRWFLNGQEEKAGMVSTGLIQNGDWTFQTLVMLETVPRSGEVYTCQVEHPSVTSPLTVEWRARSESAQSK

Take “36 (SLLYKVPYV; listed as Homo sapiens) [compound 36]”: in the assay with MHC class I, the “Peptide exchange (MHC class I binding score)” value was “++++ (>=75%=++++)”.
The same measure, in the same setting: the result for “54 (AVIEAEKIAQV; listed as Homo sapiens) [compound 54]” reads “++++ (>=75%=++++)”.
Turning to “251 (VLGGKAFLEHL; listed as Homo sapiens) [compound 251]”, in the assay on MHC class I, the “Peptide exchange (MHC class I binding score)” value is recorded as “++++ (>=75%=++++)”.
On the same count and under the same terms, the result for “266 (KLQEQLAQL; listed as Homo sapiens) [compound 266]” reads “++++ (>=75%=++++)”.
For the substance “FEGQFSINKVPGNFHVS (listed as Homo sapiens) [SEQ ID NO 604]”, the “binding / complex formation” value is recorded as “did not bind” in the assay with HLA-DR6; “form a complex” with HLA-DR4; “did not bind” with HLA-DR3; “form a complex” with HLA-DR5; “form a complex” in the assay with HLA-DR1; “form a complex” with HLA-DR7. Also, the “binding / complex formation” value in the assay with HLA-DR2 was “form a complex”. Also, the “stability of the formed HLA-peptide complex” value in the assay on HLA-DR4, with HLA-DR5, with HLA-DR1 and with HLA-DR7 was “stable” in each case. The binding score in the assay with HLA-DR4 is listed as no less than 15%; with HLA-DR5 (HLA-DR5, compared to the positive control, over 15% = strong binding), no less than 15%. Moreover, the “number of formed HLA-peptide complexes stable for at least 24 h” value in the assay with HLA-DR haplotypes is listed as 4. In the assay on HLA-DR haplotypes, the “number of HLA-DR haplotypes with considerable binding capacity” value was “at least 2”. The “number of HLA-DR haplotypes with which a complex was formed” value with HLA-DR haplotypes came out at 5.
Consider “GNQLFRINEANQLMQ (listed as Homo sapiens) [SEQ ID NO 597]”, for which the “binding / complex formation” value is “did not bind” with HLA-DR6; “form a complex” with HLA-DR4; “did not bind” with HLA-DR3; “form a complex” in the assay on HLA-DR5; “form a complex” in the assay with HLA-DR1; “form a complex” in the assay with HLA-DR7. Also, in the assay with HLA-DR2, the “binding / complex formation” value is reported as “form a complex”. Moreover, the “stability of the formed HLA-peptide complex” value in the assay with HLA-DR4, in the assay with HLA-DR5, with HLA-DR1 and in the assay on HLA-DR7 was “stable” each time. Also, the binding score result with HLA-DR4 is “over 15%”; with HLA-DR1 (HLA-DR1, compared to the positive control, over 15% = strong binding) it was “over 15%”; in the assay with HLA-DR7 (HLA-DR7, compared to the positive control, over 15% = strong binding) it was “over 15%”; with HLA-DR2 (HLA-DR2, compared to the positive control, over 15% = strong binding) it was “over 15%”. Also, the “number of formed HLA-peptide complexes stable for at least 24 h” value in the assay with HLA-DR haplotypes is listed as 4. The “number of HLA-DR haplotypes with considerable binding capacity” value in the assay on HLA-DR haplotypes is “at least 4”. Besides, the “number of HLA-DR haplotypes with which a complex was formed” value with HLA-DR haplotypes was 5.
Consider “HRSFVDLSGHNLANPHP (listed as Homo sapiens) [SEQ ID NO 478]”, for which, in the assay with healthy donor PBMC, the “IFN-γ secretion in ELISPOT, healthy donor PBMC (positive/tested)” value (“IFN-γ secretion … (positive/tested)” for short) is 0/8. In addition, the “T cell responses (IFN-γ ELISPOT), share of AML patients” value (from here on “T cell responses … of AML patients”) in the assay on AML patient PBMC came out at 26.7%. The “T cell responses (IFN-γ ELISPOT) in AML patients (positive/tested)” value (“T cell responses … (positive/tested)” for short) in the assay with AML patient PBMC (listed as PII1) is “significant increase in IFN-γ production”; in the assay with AML patient PBMC (listed as P^II1), 4/15.
Consider “SPNIVIALSGNKADLA (listed as Homo sapiens) [SEQ ID NO 558]”, for which the “IFN-γ secretion … (positive/tested)” value in the assay on healthy donor PBMC is given as 0/8. Besides, the “T cell responses … of AML patients” value in the assay with AML patient PBMC worked out at 20.0%. The “T cell responses … (positive/tested)” value in the assay on AML patient PBMC (listed as P[[I]]II2) is on record as “significant increase in IFN-γ production”; in the assay with AML patient PBMC (listed as P^II2) it was 3/15.
On to “TEGQFVDLTGNRLTYT (listed as Homo sapiens) [SEQ ID NO 544]”, for which the “IFN-γ secretion … (positive/tested)” value in the assay with healthy donor PBMC was 0/8. Also, the “T cell responses … of AML patients” value in the assay with AML patient PBMC stood at 13.3%. Also, the “T cell responses … (positive/tested)” value in the assay on AML patient PBMC (listed as P[[I]]II3) is “significant increase in IFN-γ production”; with AML patient PBMC (listed as P^II3), 2/15.

The record behind these values is patent publication US10525115B2 (Immatics Biotechnologies GmbH, priority 2014, dated 2020).
